Earlier results, collected in patent publication US20080255097A1, “Methods for the Treatment of Substance Abuse and Dependence” (priority 2005, published 2008).

Assays:
allopregnanolone [1] = settings: in vivo
[2] = overdose
[3] = test system: GABAA receptor α4 subunit mRNA; settings: withdrawal after long-term exposure
GABAA receptors = settings: 10 μM diazepam substituted for ethanol
[4] = test system: GABAA receptor α4 subunit mRNA; settings: exposure at the time of ethanol withdrawal
allopregnanolone [5] = settings: in vivo; remark: listed apart in the source
[6] = not given; remark: listed apart in the source

CNCCC(Oc1ccc(C(F)(F)F)cc1)c1ccccc1 (stereo not drawn) [fluoxetine]
brain and cerebrospinal fluid content of allopregnanolone (allopregnanolone [1]): increase

CCCC(C)(COC(N)=O)COC(N)=O [MEPROBROMATE]
highest ingested amount with survival [2]: much as 40 g.

NCC1(CC(=O)O)CCCCC1 [Gabapentin]
half-life (in vivo): 5 to 7 h
metabolism (in vivo): not appreciably metabolized

N[C@@H]1C[C@H]1c1ccccc1 (racemic) [TRANYLCYPROMINE]
time in which the drug is excreted (after withdrawal): 24 h

CN1C(=O)CN=C(c2ccccc2)c2cc(Cl)ccc21 [diazepam]
amount of α4 subunit mRNA on withdrawal of the drug [3]: marked increase
effect on positive modulation of 3 μM flumazenil induced by ethanol withdrawal (GABAA receptors): negated
effect on ethanol withdrawal-induced increase in abundance of α4 subunit mRNA [4]: antagonizes

C=CCN1CC[C@]23c4c5ccc(O)c4O[C@H]2C(=O)CC[C@@]3(O)[C@H]1C5 [Naloxone, 17-allyl-4,5α-epoxy-3,14-dihydroxymorphinan-6-one]
half-life (in vivo): 1 to 1.67 h

CN1CCC[C@H]1c1cccnc1 [nicotine]
half-life (in vivo): about 60 minutes
cerebrocortical concentrations of allopregnanolone and its precursors (allopregnanolone [5]): increase

Cc1ccc(-c2nc3ccc(C)cn3c2CC(=O)N(C)C)cc1 [zolpidem]
amount of α4 subunit mRNA on withdrawal of the drug [3]: marked increase

CCN(C(C)=O)c1cccc(-c2ccnc3c(C#N)cnn23)c1 [zalpelon]
amount of α4 subunit mRNA on withdrawal of the drug [3]: marked increase

C[C@]12C=CC(=O)N[C@@H]1CC[C@@H]1[C@@H]2CC[C@]2(C)[C@@H](C(=O)Nc3cc(C(F)(F)F)ccc3C(F)(F)F)CC[C@@H]12 [Dutasteride, (5α,17β)-N-{2,5 bis(trifluoromethyl)phenyl}-3-oxo-4-azaandrost-1-ene-17-carboxamide]
adverse effects compared with therapeutic dose of 0.5 mg ([6]; clinical study, daily doses of 5 mg, 60 subjects, 6 months): subjects for 6 months with no additional adverse effects to those
safety ([6]; volunteer studies, single doses up to 40 mg (80 times the therapeutic dose) for 7 days): without significant safety concerns. In a clinical study, daily doses
